Test system: human platelet rich plasma
Assay: ADP induced platelet aggregation test in human platelet rich plasma
Format: cell-based
Procedure: The antiplatelet aggregatory activity was measured using human platelet rich plasma as described below, and in Subbiah et al. Brazilian Journal of Medical and Biological Research 1988; 21: 535-538.
Platelet-rich plasma (PRP) was obtained by centrifuging blood collected in 3.8% trisodium citrate (9:1, v/v) from human volunteers or from the blood bank for 15 minutes at 700 rpm. Remaining blood was centrifuged at 2500 rpm for 25 minutes to obtain platelet-poor plasma (PPP). The platelets were quantified with an electronic counter (Coulter Electronics, Inc., Hialeah, Fla.). The platelet count was adjusted to 300,000-350,000/mm^3 with PPP, and 0.45 ml used in each test of aggregation.
ADP (Sigma Chemical Co. St. Louis, Mo.) (0.1 mg/ml), and arachidonic acid (NuCheck Pre, Elysian, Minn.) (1.0 mg/ml in 20 mM Na2CO3) were used as aggregatory agents. Samples were warmed to 37° C. with stirring for approximately two minutes prior to the addition of 50 μl of aggregating agents. Guarana (or its fractions) or caffeine (alone or in combination with catechins) were added before the addition of ADP or arachidonic acid. The change in percentage light transmission was recorded with a dual aggregometer (Chrono-Log Co, Havertown, Pa.) after addition of aggregation agents.

Cn1c(=O)c2c(ncn2C)n(C)c1=O [caffeine]
platelet aggregation inhibitory activity (in words): only weakly active

— patent US20010008891A1, “PHARMACEUTICAL COMPOSITIONS COMPRISING A XANTHINE AND A CATECHIN” (priority 1998, published 2001)
